{
  "source": "paper PMC12199414",
  "about": "“A Self‐Assembling LYTAC Mediates CTGF Degradation and Remodels Inflammatory Tumor Microenvironment for Triple‐Negative Breast Cancer Therapy” (Advanced Science, 2025)",
  "key": {"[1]": {"biological_target": "T1, rhCTGF‐His tag protein (Homo sapiens, UniProt P29279)", "T1 construct": "purchased Novoprotein C15W", "T1 sequence (P29279 27-349)": "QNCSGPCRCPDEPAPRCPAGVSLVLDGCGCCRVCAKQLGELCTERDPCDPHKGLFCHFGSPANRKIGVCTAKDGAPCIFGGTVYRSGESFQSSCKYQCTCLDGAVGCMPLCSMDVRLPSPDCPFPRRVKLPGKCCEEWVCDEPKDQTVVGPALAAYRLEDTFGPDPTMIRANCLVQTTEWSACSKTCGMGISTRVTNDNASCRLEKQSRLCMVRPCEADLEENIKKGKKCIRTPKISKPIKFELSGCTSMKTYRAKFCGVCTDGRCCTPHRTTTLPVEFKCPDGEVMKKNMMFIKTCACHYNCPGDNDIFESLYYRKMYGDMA", "assay": "MicroScale Thermophoresis (MST) binding to CTGF", "conditions": "Monolith NT.115, protein labelled with Monolith RED-NHS, 2 × 10^−6 M protein, PBST buffer (PBS, 0.05% Tween-20)", "description": "(§1) The affinity between various peptides (CL8, CC14, LT12, CC14S, CE8, FH14S, FH14, and CL8‐M6P3) and purified rhCTGF‐His tag protein (C15W, Novoprotein), IGFBP protein, and TSP proteins, was evaluated using microscale thermophoresis (NanoTemper, Germany). Additionally, the interaction between CL8‐M6P3 and the CCN1, CCN3, and CCN4 proteins was measured using the Dianthus system (NanoTemper, Germany). Prior to measurements, the purified proteins were labeled with fluorescent dye Monolith RED‐NHS (MO‐L011, NanoTemper). For the MST assay, 2 × 10^−6 M proteins (10 µL) were added with variable concentrations of the above peptides in PBST buffer (10 µL, PBS containing 0.05% Tween‐20). After a short incubation, the mixture was loaded into the Monolith NT.115 capillary (MO‐K022, NanoTemper) and analyzed using the Monolith NT.115 (NanoTemper, Germany)."}, "[2]": {"tested_on": "red blood cells", "assay": "Hemolysis assay", "type": "cell-based, mice", "conditions": "mouse erythrocytes, 0-30 × 10^−6 M, 1 h, 37 °C, absorbance 570 nm", "description": "The hemolytic activities of CL8, CL8‐M6P3, and NanoCLY were determined by monitoring hemoglobin release from red blood cells. Fresh erythrocytes were obtained from the whole blood of mice by centrifugation (1000 × g for 30 min at 4 °C), and washed three times with cold 0.9% NaCl. The erythrocytes were dispensed into 96‐well plates, incubated with CL8, CL8‐M6P3 and NanoCLY at specified concentrations (0, 0.3, 1, 3, 10, and 30 × 10^−6 M) for 1 h at 37 °C, centrifuged at 1000 × g for 10 min, the supernatant samples were collected, and the absorbance at 570 nm was measured by microplate reader Cytation 5 (Biotek, USA). The negative control group was defined as the absorbance obtained in 1× PBS (A PBS), and 100% hemolysis in 0.1%Triton X‐100 (v/v) (A Triton). The hemolysis percentage was calculated as: (A peptide − A PBS)/(ATriton − A PBS) × 100%."}, "[3]": {"biological_target": "IGFBP protein (N-terminal domain of CTGF) (Homo sapiens, UniProt P29279)", "assay": "MST binding to IGFBP domain of CTGF", "conditions": "Figure S6b", "description": "as §1"}, "[4]": {"biological_target": "T2, TSP proteins (C-terminal domain of CTGF) (Homo sapiens, UniProt P29279)", "T2 sequence (P29279 198-243 limits assumed)": "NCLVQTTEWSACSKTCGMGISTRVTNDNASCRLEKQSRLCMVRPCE", "assay": "MST binding to TSP domain of CTGF", "conditions": "Figure S6c", "description": "as §1"}, "[5]": {"biological_target": "T3, CCN1 (Homo sapiens, UniProt O00622)", "T3 sequence (O00622 25-381)": "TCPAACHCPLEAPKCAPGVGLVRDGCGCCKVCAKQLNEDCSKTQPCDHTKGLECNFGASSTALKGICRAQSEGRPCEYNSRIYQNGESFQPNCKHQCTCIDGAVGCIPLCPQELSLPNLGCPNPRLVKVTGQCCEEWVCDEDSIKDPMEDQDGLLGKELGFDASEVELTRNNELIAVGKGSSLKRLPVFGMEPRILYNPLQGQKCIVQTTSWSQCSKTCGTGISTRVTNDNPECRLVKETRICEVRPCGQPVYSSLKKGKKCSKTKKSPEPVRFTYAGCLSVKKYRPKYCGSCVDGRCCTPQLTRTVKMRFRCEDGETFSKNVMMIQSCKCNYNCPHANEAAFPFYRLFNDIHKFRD", "assay": "Binding to CCN1 (Dianthus system)", "conditions": "Figure S7a", "description": "as §1"}, "[6]": {"biological_target": "T4, CCN3 (Homo sapiens, UniProt P48745)", "T4 sequence (P48745 32-357)": "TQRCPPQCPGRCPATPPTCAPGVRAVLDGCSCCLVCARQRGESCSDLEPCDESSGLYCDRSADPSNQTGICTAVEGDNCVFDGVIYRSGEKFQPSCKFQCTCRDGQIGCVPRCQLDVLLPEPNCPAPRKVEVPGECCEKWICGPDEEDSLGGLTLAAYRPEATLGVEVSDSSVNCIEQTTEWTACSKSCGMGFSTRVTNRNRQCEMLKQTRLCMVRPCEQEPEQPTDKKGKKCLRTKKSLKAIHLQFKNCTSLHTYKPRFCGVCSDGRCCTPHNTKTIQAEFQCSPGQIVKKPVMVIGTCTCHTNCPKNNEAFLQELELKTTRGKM", "assay": "Binding to CCN3 (Dianthus system)", "conditions": "Figure S7a", "description": "as §1"}, "[7]": {"biological_target": "T5, CCN4 (Homo sapiens, UniProt O95388)", "T5 sequence (O95388 23-367)": "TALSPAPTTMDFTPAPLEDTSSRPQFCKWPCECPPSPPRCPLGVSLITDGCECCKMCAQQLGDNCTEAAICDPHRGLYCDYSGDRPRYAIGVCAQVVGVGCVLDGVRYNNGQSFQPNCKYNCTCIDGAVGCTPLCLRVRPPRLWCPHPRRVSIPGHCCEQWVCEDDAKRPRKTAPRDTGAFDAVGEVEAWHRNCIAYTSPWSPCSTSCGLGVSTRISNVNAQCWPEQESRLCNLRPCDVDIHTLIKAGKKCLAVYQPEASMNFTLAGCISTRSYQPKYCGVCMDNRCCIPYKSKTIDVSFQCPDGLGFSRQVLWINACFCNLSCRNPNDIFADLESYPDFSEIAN", "assay": "Binding to CCN4 (Dianthus system)", "conditions": "Figure S7a", "description": "as §1"}, "[8]": {"biological_target": "T6, CTGF (Homo sapiens, UniProt P29279)", "T6 construct": "endogenous in cells; host or cells: BT549 and MDA-MB-231 (human TNBC cell lines)", "T6 sequence (P29279 27-349)": "T1 sequence (P29279 27-349)", "assay": "ELISA of extracellular CTGF in culture media of TNBC cells", "type": "cell-based", "conditions": "in vitro, BT549 and MDA-MB-231 culture media, 12 h", "description": "BT549 and MDA‐MB‐231 cells were treated with various concentrations of CL8‐M6P3 or NanoCLY for 12 h. Extracellular CTGF protein level in conditioned media was quantified by a human CTGF ELISA kit following the manufacturer's instructions (ab261851, Abcam and CSB‐E07875h, Cusabio). Extracellular CCN1, CCN3, and CCN4 protein levels were quantified using respective ELISA kits (HY‐P7842, HY‐P701327, HY‐P78051, MCE) following the manufacturer's instructions (CSB‐EL015956HU, CSB‐EL026119HU, CSB‐E13884h, Cusabio). Additionally, BSP and β‐CTx levels in serum were quantified by ELISA kit following the manufacturer's instructions (BPE10823, BPE10438, lengton)."}, "[9]": {"biological_target": "T7, recombinant human CTGF‐His tag (connective tissue growth factor) (human), P29279", "T7 chain": "T1 sequence (P29279 27-349)", "assay": "MST; proteins labeled with Monolith RED-NHS; 2 × 10^-6 M protein (10 µL) mixed with variable concentrations of peptide in PBST (10 µL, PBS with 0.05% Tween-20); Monolith NT.115"}, "[10]": {"biological_target": "T8, recombinant human CTGF‐His tag (connective tissue growth factor) (human, UniProt P29279 27-349, labeled with fluorescent dye Monolith RED‐NHS)", "T8 construct": "connective tissue growth factor (CTGF/CCN2), human, recombinant; also called CCN2; rhCTGF‐His tag protein; source: bought: Novoprotein (C15W), purified", "T8 sequence (looked up)": "T1 sequence (P29279 27-349)", "assay": "MST; proteins labeled with Monolith RED-NHS; 2 × 10^-6 M protein (10 µL) mixed with variable concentrations of peptide in PBST (10 µL, PBS with 0.05% Tween-20); Monolith NT.115", "conditions": "both partners purified"}},
  "note": "Residues, ends and D or L forms follow the SMILES beside them. No end group written: not given here.",
  "data": [
    {"molecule": "CC(C)C[C@H](NC(=O)[C@H](Cc1ccc(O)cc1)NC(=O)[C@H](Cc1c[nH]cn1)NC(=O)[C@H](C)NC(=O)[C@H](C)NC(=O)[C@H](CO)NC(=O)[C@@H]1CCCN1C(=O)[C@@H](N)CS)C(N)=O", "note": "[CL8, reference compound] (H-CPSAAHYL-NH2)", "values": [
      {"measurement": "Kd", "setting": "[1]", "value": 1230, "unit": "nM"},
      {"measurement": "hemolysis safety", "setting": "[2]", "value": "good hemolysis safety"}
    ]},
    {"molecule": "H-CPSAAHYL-PEG3-[Pra(M6P)βAla]3-NH2 [CL8‐M6P3, peptide-based CTGF-LYTAC: CL8 conjugated to glycopeptide scaffold M6P3 by a PEG3 linker]", "values": [
      {"measurement": "interaction with IGFBP domain of CTGF", "setting": "[3]", "value": "interacts"},
      {"measurement": "interaction with TSP domain of CTGF", "setting": "[4]", "value": "interacts"},
      {"measurement": "binding interaction with CCN1", "setting": "[5]", "value": "no binding interactions"},
      {"measurement": "binding interaction with CCN3", "setting": "[6]", "value": "no binding interactions"},
      {"measurement": "binding interaction with CCN4", "setting": "[7]", "value": "no binding interactions"},
      {"measurement": "extracellular CTGF degraded", "setting": "[8]", "value": "≈ 50%"},
      {"measurement": "hemolysis safety", "setting": "[2]", "value": "good hemolysis safety"}
    ]},
    {"molecule": "CPSAAHYL (modifications not checked)", "note": "[CL8 peptide]", "values": [
      {"measurement": "Kd", "setting": "[9]", "value": 1230, "unit": "nM"}
    ]},
    {"molecule": "CPSAAHYL (not fully specified (C-terminus))", "note": "[CL8‐M6P3]", "values": [
      {"measurement": "Kd", "setting": "[10]", "value": 13400, "unit": "nM"}
    ]}
  ]
}
